# Experimental data from US20250064093A1, “FERMENTED PH-INDEPENDENT SOLUTION SPOILAGE CONTROL IN FOOD SYSTEMS” (Third Wave Bioactives, LLC, priority 2023, published 2025).
# Test system: yeast
# Experiment: Natural spoilage of chicken salad, growth of yeast
# Assay type: cell-based
# Conditions: 500 ppm Nisin
# Protocol: The chicken salad was freshly made and allowed to spoil naturally over time. To prevent the product from being spoiled by Lactic Acid Bacteria (LAB), which can cause an accumulation of lactic acid reducing the pH over time, Nisin preparation (500 ppm) was added. Treatments included a no preservative Control, 500 ppm Nisin, 0.1% Potassium sorbate +500 ppm Nisin (Ps+N), and 1% Bacillus fermentate +500 ppm Nisin (BA+N). Usage rates were in the range of typical inclusion in finished foods.
substance,measurement,value
nisin,yeast counts compared to Bacillus-treated samples,rose much higher
